Consider 9 molecules from PMC6321439, “Structural Elucidation and Cytotoxicity of a New 17-Membered Ring Lactone from Algerian Eryngium campestre” (Molecules, 2018).

In data set [1] the test system is Trypanosoma brucei brucei (bloodstream forms). In words: Antitrypanosomal activity in vitro. The class given is cell-based. Here is the method: (§1) The crude extract and the newly identified pure compound (91.9%), campestrolide, were evaluated in vitro for their cytotoxicity on two mammalian cell lines: normal human fibroblasts (WI38) and cancerous macrophage-like murine cells. Their antiprotozoal activities were also investigated on Trypanosoma brucei brucei (Tbb. strain 427) bloodstream forms and Leishmania mexicana mexicana (Lmm. MHOM/BZ/84/BEL46) promastigotes. The tests were performed using stock solutions prepared in DMSO at 10 mg/mL. For the cytotoxicity assay, the samples were tested in eight serial 1.7-fold dilutions (150 µL transferred into 100 µL fresh medium) in the 96-well microtiter plates (concentration range: 0.7–25 µg/mL). The camptothecin (Sigma-Aldrich, St.-Louis, MO, USA) was used as a positive control with 5-fold dilutions (concentration range: 0.00032–25 µg/mL) from a 10 mg/mL DMSO stock solution. For the antiparasitic assays, the samples were tested in eight serial 2-fold dilutions (concentration range: 0.20–25 or 0.10–12 µg/mL on Leishmania and Trypanosoma, respectively). Suramine sodium and pentamidine isethionate salts (Sigma-Aldrich, St.-Louis, MO, USA) were used as a positive control with 3-fold dilutions (0.0046–10 µg/mL) from a stock solution of 2 mg/mL as well as amphotericin B. A maximum of 0.5% DMSO was previously verified to be non-toxic in all the biological assays. The IC50 values were determined using Microsoft Excel and GraphPad Prism 7.0 software (GraphPad, San Diego, CA, USA), based on a nonlinear regression. The selectivity index was calculated in comparison to the WI38 cytotoxicity to assess the therapeutic properties as antiparasitic or anticancer hits.

Data set [2] has as its system Leishmania mexicana mexicana promastigotes. In words: Antileishmanial activity in vitro. The data set is classed as cell-based. The settings on record: for IC50: Leishmania mexicana. As for the experimental part: as §1
Data set [3] in a line: Cytotoxicity on WI38 cells. The settings on record: human, WI38 normal human fibroblasts, mean ± SD from at least six values. The class given is cell-based. As for the experimental part:
as §1

The nature of data set [4]: Cytotoxicity / anticancer activity on J774 cells. The data set is classed as cell-based. The settings on record: mouse, J774 cancerous macrophage-like murine cells, mean ± SD from at least six values. As for the experimental part: as §1
A further data set has as its system all tested cells. Nature of the data set: Summary over cytotoxicity and antiprotozoal assays. The data set is classed as cell-based. The settings on record: read-out: IC50 on all tested cells except Trypanosoma. As for the experimental part: as §1, with “Suramine sodium and pentamidine isethionate salts (Sigma-Aldrich, St.-Louis, MO, USA) were used as a positive control with 3-fold dilutions (0.0046–10 µg/mL) from a stock solution of 2 mg/mL as well as amphotericin B. A maximum of 0.5% DMSO was previously verified to be non-toxic in all the biological assays.” left out

Another data set has as its system T. cruzi trypomastigotes. Details: method as in PMID 22414103. The following applies: at 100 µg/mL; cited from earlier work.
In the next data set the test system is cruzain. Details: method as in PMID 22414103. The settings on record: cited from earlier work.
Data set [5] relates to Trypanosoma brucei rhodesiense, T. cruzi, Plasmodium falciparum and Leishmania donovani axenic and the infected macrophages amastigotes. More on the design: method as in PMID 17922552. The settings on record: cited from earlier work; for IC50: T. b. rhodesiense, T. cruzi, P. falciparum, L. donovani axenic and infected-macrophage amastigotes, read-out: IC50 on protozoan panel.

Details of data set [6]: method as in earlier work. The following applies: cited from earlier work.
The test system of data set [7] is Trypanosoma brucei brucei. Details: method as in PMID 22473703. The following applies: cited from earlier work.
[8] abbreviates: Trypanosoma brucei, Tbb bloodstream forms, strain 427, read-out: Antiparasitic activity IC50 ± SD Tbb.
Setting [9] is: Trypanosoma brucei, Tbb bloodstream forms, strain 427, read-out: Antiparasitic activity IC50 ± SD Tbb (µM for pure compound).
The mark [10] stands for this setting: Lmm promastigotes, read-out: Antiparasitic activity IC50 ± SD Lmm.
The mark [11] stands for this setting: Lmm promastigotes, read-out: Antiparasitic activity IC50 ± SD Lmm (µM for pure compound).
Where [12] appears, read: read-out: Cytotoxicity IC50 ± SD WI38.
The mark [13] stands for this setting: read-out: Cytotoxicity IC50 ± SD WI38 (µM for pure compound).
[14] abbreviates: read-out: Cytotoxicity IC50 ± SD J774.
Setting [15] is: read-out: Cytotoxicity IC50 ± SD J774 (µM for pure compound).

≈ marks a conversion by molar mass, not a printed value. Read-outs that look alike come from different tables or passages of the source.

Consider `Cc1ccc(C(=O)Nc2ccc(S(=O)(=O)O)c3cc(S(=O)(=O)O)cc(S(=O)(=O)O)c23)cc1NC(=O)c1cccc(NC(=O)Nc2cccc(C(=O)Nc3cc(C(=O)Nc4ccc(S(=O)(=O)O)c5cc(S(=O)(=O)O)cc(S(=O)(=O)O)c45)ccc3C)c2)c1` [suramine, reference compound], for which the IC50 came out at 0.031 ± 0.012 µg/mL in [1] (setting [8]) and 0.022 µM in data set [1] (setting [9]).
Consider `N=C(N)c1ccc(OCCCCCOc2ccc(C(=N)N)cc2)cc1` [pentamidine, reference compound], for which the IC50 in [2] (setting [10]) came to 0.057 ± 0.008 µg/mL; in [2] (setting [11]) it was 0.097 µM.
As for `C=C[C@@H]1C#CC#CC/C=C\CCCCCCCC(=O)O1` [Compound 33, (Z)-17(R)-vinyloxacycloheptadeca-10-en-13,15-diyn-2-one], the IC50 in data set [3] (setting [12]) amounted to 5.2 ± 0.24 µg/mL; in [3] (setting [13]), 19.2 µM; in data set [4] (setting [14]) it was 4.84 ± 0.1 µg/mL; in [4] (setting [15]), 17.9 µM; in data set [1] (Tbb bloodstream forms, strain 427, read-out: Antiparasitic activity IC50 ± SD Tbb (µM for pure compound)) it was 2.17 µM; in [1] (setting [8]), 0.6 µg/mL. For the same molecule, the IC50 in data set [1] (setting [9]) is 2.2 µM; in [2] (setting [10]), 3.43 ± 0.02 µg/mL; in data set [2] (setting [11]), 12.7 µM; in the data set with all tested cells it was 12500 to 19500 nM. Besides, in [1] (Tbb bloodstream forms, strain 427), the “Antiparasitic activity IC50 ± SD Tbb” value worked out at 0.59 ± 0.08 µg/mL. In addition, in [1] (compared to WI38 cytotoxicity), the “Selectivity Index IC50 WI38/IC50 Parasite, Tbb” value is listed as 8.9. For the same molecule, the “Selectivity Index IC50 WI38/IC50 Parasite, Lmm” value in data set [2] (compared to WI38 cytotoxicity) is recorded as 1.5.
Consider `C=C1/C=C/[C@H](C(C)C)CC/C(C)=C/CC1` [germacrene D, Germacrene D], for which, in the data set with T. cruzi trypomastigotes, the “growth inhibition of T. cruzi trypomastigotes” value is on record as 61%. Moreover, in the data set with cruzain, the IC50 cruzain was 22.1 µg/mL (≈ 108 µM).
On to `C=CC(C#CC#CC(O)CCCCCCCCC)OC(C)=O` (centres unmarked) [8-hydroxyheptadeca-1-ene-4,6-diyn-3-yl ethanoate], for which, in [5], the IC50 was 100 to 2500 nM and the “SI compared on L6 rat skeletal myoblasts” value is given as above 10.
For `C=CC(C#CC#CC(O)CCCCCCCCCCOC(C)=O)OC(C)=O` (centres unmarked) [16-acetoxy-11-hydroxyoctadeca-17-ene-12,14-diynyl ethanoate], in data set [5], the IC50 is 100 to 2500 nM and the “SI compared on L6 rat skeletal myoblasts” value was above 10.
Turning to `C[C@@H]1[C@H](O)[C@@H](C)/C=C/C=C/C=C/C=C/C=C/C=C/C=C/[C@H](O[C@@H]2O[C@H](C)[C@@H](O)[C@H](N)[C@@H]2O)C[C@@H]2O[C@](O)(C[C@@H](O)C[C@@H](O)[C@H](O)CC[C@@H](O)C[C@@H](O)CC(=O)O[C@H]1C)C[C@H](O)[C@H]2C(=O)O` [amphotericin B, reference compound], the concentration for half-maximal inhibition (IC50) in [2] (read-out: Antiparasitic activity IC50 ± SD Lmm (µM for pure compound)) turned out to be 0.09 ± 0.06 µM.
Regarding `C=C[C@H](O)C#CC#CC/C=C\CCCCCCC` [Falcarinol], in [6], the “reported log P” value is 5.50. For the same molecule, the “SI compared to HeLa cytotoxicity” value in data set [7] (T. b. brucei compared to HeLa) was 858. In data set [7], the half-inhibitory concentration (IC50) is 40 nM and the “IC50 on Trypanosoma brucei brucei” value was 0.01 µg/mL (≈ 0.0409 µM).
As for `CC[C@@]1(O)C(=O)OCc2c1cc1n(c2=O)Cc2cc3ccccc3nc2-1` [camptothecin, reference compound], the concentration for half-maximal inhibition (IC50) in data set [3] (setting [12]) is 0.036 ± 0.022 µg/mL; in data set [3] (setting [13]), 0.103 µM; in data set [4] (setting [14]) it was 0.007 ± 0.005 µg/mL; in data set [4] (setting [15]), 0.021 µM.

For orientation: IC50 means the concentration that gives 50% inhibition.
